Assays:
[1] = acute per os toxicity (LD50), measured on rats; format: in vivo, rat; settings: rat, in vivo, po
Text: (§1) The therapeutic indexes of current anthelmintics and transmix each having insecticidal activity and suitable for per os administration are shown in Table 1.

[2] = system: horse bots (Gastrophylus larvas); assay: therapeutic dose / therapeutic index against horse bots; format: in vivo, Gastrophylus species (in horses); settings: for Therapeutic index (selectivity): quotient of toxic (rat LD50) and therapeutic dose (horse bots)
Protocol: One of the most important characteristics of the pharmaceutical compositions is the quotient of toxic and therapeutic dosage, the so-called therapeutic index characterizing the security of use. The higher is this value, the smaller is the risk in use, the selective is the active ingredient.
On the basis of the results of the laboratory examinations and toxicity data the therapeutic dose usable for treating bot infection of horses was determined in field trials.
as §1

[3] = system: Musca domestica WHO/SRS (L3 larvas); assay: hatching of imagos from L3 fly larvas on treated nutriment; format: in vivo; settings: 12 days
Text: (§2) For this purpose the activity of several pyrethroid insecticides has been tested per se or in combination with different benzimidazole type anthelmintics on flies (Musca domestica). […] This synergistic interaction was shown not only in the decrease of the therapeutical concentrations but also on the activity of the sublethal doses to the development. The body mass of the larvas is decreased and from the little aurelias evolved during the long development often deformed imagos, unsuitable for further multiplication were hatched out. Above all the synergistic interaction has made possible the decrease of the therapeutic dose of the orally administered insecticide.
(§3) For examining the interaction between benzimidazoles and pyrethroids the larvas of domestic flies in L3 status (Musca domestica WHO/SRS) were used as model organism.
(§4) A nutriment suitable for breeding fly larvas was prepared from yeast, milk, bran and water and the nutriment was portioned into plastic glasses. Acetonic strain solution was prepared from the active ingredients and after dilution the amounts necessary for achieving the desired active ingredient concentrations were added to the nutriment in the plastic glasses.
The examinations were carried out with total active ingredient concentrations of 1, 5, 10, 50, 100 and 200 ppm in 6 parallel tests per each concentration. Into the plastic glasses containing the treated culture medium 20--20 domestic fly-larvas of L3 status were placed after mass measurement. The glasses were covered by gauze and after 12 days the hatched imagos were counted. In the control containing only solvent the hatching ratio was 91%, the average weight of the hatched flies was 18.2 mg.

[4] = system: Musca domestica (L3 larvas); assay: average body mass and hatching % of fly larvas/imagos after treatment; format: in vivo
Text: as §2, §3, §4
Fly larvas of L3 status were grown in identical manner as in an Example 1, on a nutriment having a total active ingredient concentration of 5 and 10 ppm.

horses = horses (Vet. Med., 1985, Apr., p. 68); cited from earlier work
rats = assay: acute per os toxicity (LD50), measured on rats; format: in vivo, rat
Text: as §1

[5] = 100 ppm total active ingredient
[6] = 200 ppm total active ingredient

Compound	LD50 [1]	Therapeutic index (selectivity) [2]	number of hatched imagos (from 120 L3) ([3]; 1 ppm total active ingredient)	number of hatched imagos (from 120 L3) ([3]; 5 ppm total active ingredient)	number of hatched imagos (from 120 L3) ([3]; 10 ppm total active ingredient)	number of hatched imagos (from 120 L3) ([3]; 50 ppm total active ingredient)	number of hatched imagos (from 120 L3) [3, 5]	number of hatched imagos (from 120 L3) [3, 6]	average body mass ([4]; 5 ppm total active ingredient)	hatching % ([4]; 5 ppm total active ingredient)	average body mass ([4]; 10 ppm total active ingredient)	hatching % ([4]; 10 ppm total active ingredient)	side effects accompanying treatment (horses)	Toxicity acute per os LD50 (rats)	Therapeutic dose ([2]; against horse bots, per os)
CC1(C)[C@H](C=C(Cl)Cl)[C@H]1C(=O)O[C@H](C#N)c1cccc(Oc2ccccc2)c1 (relative stereo) [Transmix, α-cyano-3-(2,2-dichlorovinyl)-2,2-dimethyl-cyclopropan-carboxylic acid-3-phenoxybenzylester]	5000 mg/kg	2500	108	112	89	64	39	18	12.9	98%	9.6	84%			
CCCSc1ccc2nc(NC(=O)OC)[nH]c2c1 [Albendazole, 5(6)-propylthio-benzimidazole-N-methylcarbamate]			111	113	107	112	107	109	18.3	100%	17.8	100%			
CC1(C)C(C=C(Cl)Cl)C1C(=O)OC(C#N)c1cccc(Oc2ccccc2)c1 (stereo not drawn) [Chinmix, α-cyano-3-(2,2-dichlorovinyl)-2,2-dimethyl-cyclopropan-carboxylic acid-3-phenoxybenzylester]			90	62	47	27	4	0	10.3	53%	7.8	41%			
COP(=O)(OC)OC=C(Cl)Cl [Dichlorvos, 2,2-dichlorovinyl-phosphonic acid dimethylester]	56 mg/kg	11													
COP(=O)(OC)C(O)C(Cl)(Cl)Cl (stereo not drawn) [Trichlorfon, 2,2,2-trichloro-1-hydroxyethyl-phosphonic acid dimethylester]	450 mg/kg	15											diarrhoea, frequent defecation and urination		
dihydro-avermectine B1 [Ivermectine]														10 mg/kg	0.2 mg/kg
